Laboratory results published in BindingDB's records for doi:10.1021/jm040903t (Sapienza University of Rome, 2005).
pKi: −log10 of the molar value.

Assays:
[1] = biological target: T1, Amine oxidase [flavin-containing] A (Bos taurus, UniProt P21398); assay: MAO Inhibition Assay; conditions: pH 7.4; 38 °C
T1 sequence (P21398 whole entry): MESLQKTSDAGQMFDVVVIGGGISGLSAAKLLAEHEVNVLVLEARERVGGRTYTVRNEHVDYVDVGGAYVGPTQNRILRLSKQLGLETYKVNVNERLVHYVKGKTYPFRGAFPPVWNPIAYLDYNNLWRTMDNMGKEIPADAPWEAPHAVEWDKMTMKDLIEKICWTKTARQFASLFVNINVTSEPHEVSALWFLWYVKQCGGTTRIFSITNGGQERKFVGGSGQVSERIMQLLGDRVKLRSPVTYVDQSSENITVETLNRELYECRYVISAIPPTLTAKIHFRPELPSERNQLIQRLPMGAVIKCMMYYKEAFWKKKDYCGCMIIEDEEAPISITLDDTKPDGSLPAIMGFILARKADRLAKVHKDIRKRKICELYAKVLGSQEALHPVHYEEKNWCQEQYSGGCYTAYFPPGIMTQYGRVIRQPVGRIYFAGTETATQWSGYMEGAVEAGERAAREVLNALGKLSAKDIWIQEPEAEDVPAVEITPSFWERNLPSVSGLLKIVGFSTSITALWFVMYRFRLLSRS
Procedure: (§1) MAO A and MAO B activities were determined […] using kynuramine as substrates. Fluorimetric measurements were recorded with a Perkin-Elmer LS 50B spectrofluorimeter. Dixon plots were used to estimate the inhibition constant (Ki) of the inhibitors. The data are the mean values of three or more experiments performed in duplicate.

[2] = biological target: T2, Amine oxidase [flavin-containing] B (Bos taurus, UniProt P56560); assay: MAO Inhibition Assay; conditions: pH 7.4; 38 °C
T2 sequence (P56560 whole entry): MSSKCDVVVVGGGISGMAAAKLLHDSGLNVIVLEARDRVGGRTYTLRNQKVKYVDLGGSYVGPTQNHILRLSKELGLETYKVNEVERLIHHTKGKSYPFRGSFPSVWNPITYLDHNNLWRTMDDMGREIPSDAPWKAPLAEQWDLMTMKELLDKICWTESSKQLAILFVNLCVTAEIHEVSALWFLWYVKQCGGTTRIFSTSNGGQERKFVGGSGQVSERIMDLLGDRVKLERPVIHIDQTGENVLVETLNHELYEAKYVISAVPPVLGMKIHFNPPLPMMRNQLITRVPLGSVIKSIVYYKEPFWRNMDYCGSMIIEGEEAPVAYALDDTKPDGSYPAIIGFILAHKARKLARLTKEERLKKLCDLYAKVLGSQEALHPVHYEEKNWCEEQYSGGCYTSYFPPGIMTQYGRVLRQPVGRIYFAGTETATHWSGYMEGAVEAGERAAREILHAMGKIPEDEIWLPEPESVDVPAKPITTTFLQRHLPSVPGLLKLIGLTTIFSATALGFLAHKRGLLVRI
Procedure: as §1

SMILES | pKi [1] | pKi [2]
NC(=S)N1N=C(c2ccc(F)cc2)C[C@H]1c1ccc(Cl)cc1 [(5S)-5-(4-chlorophenyl)-3-(4-fluorophenyl)-4,5-dihydro-1H-pyrazole-1-carbothioamide] | 8.30 | –
Cc1ccc(C2=NN(C(N)=S)C(c3ccc(Cl)cc3)C2)cc1 (configuration not stated) [5-(4-chlorophenyl)-3-(4-methylphenyl)-4,5-dihydro-1H-pyrazole-1-carbothioamide] | – | 8.82
